# In PubChem BioAssay AID2060602 (Molecular Pharmacology Branch, DTP, NCI, 2025):
# Test system: 648629-189-R-J1-PDC complex spheroids viability
# Test: Anticancer human tumor 648629-189-R-J1-PDC patient-derived bladder carcinoma cell line growth inhibition [CLK]
# Details: for IC50: curve of first compound; for viability, T/C: stronger effect = lower value
# Excerpt: A high-throughput screen of multi-cell type tumor spheroids was designed to identify active combinations of […] and targeted small molecules. Complex spheroids include a stromal component modeled by human endothelial cells (HUVEC) and fibroblasts modeled by human mesenchymal stem cells (MSCs). The concentration ranges selected for each drug and investigational agent were based upon clinically achievable concentrations if the clinical Cmax of the agent was known.
# Compounds. The drugs and investigational agents: cirtuvivint (SM08502; NSC835563), CC-671 (NSC850746), vemurafenib (NSC761431), tapotoclax (NSC804041), sotorasib (NSC818433), adagrasib (NSC831453), MRTX-1133 (NSC836407), BAY2416964 (NSC825713), copanlisib (NSC816437), inavolisib (NSC800729), abemaciclib (NSC768073), osimertinib (NSC779217), entinostat (NSC756642), eltanexor (KPT-8602, NSC794443), venetoclax (NSC766270), ceralasertib (NSC777638), bortezomib (NSC756655), olaparib (NSC753686), talazoparib (NSC767125), alisertib (NSC759677), peposertib (NSC802822), gemcitabine (NSC613327), 5-fluorouracil (NSC19893), SN-38 (NSC673596), oxaliplatin (NSC266046), paclitaxel (NSC125973), and doxorubicin (NSC123127), were obtained from the National Cancer Institute (NCI) Developmental Therapeutics Program Chemical Repository. The FDA-approved anticancer drug set is available from the Developmental Therapeutics Program at https://dtp.cancer.gov/organization/dscb/obtaining/available plates.htm. […] The stock solutions were prepared in dimethyl sulfoxide (DMSO, Sigma-Aldrich, St. Louis, MO, cat. D2650), except for the platinum complexes which were prepared in saline (Quality Biological, Gaithersburg, MD, cat. 114-055-101), at 800-fold the tested concentration and stored at -70 degrees C prior to their use. All drugs and investigational agents were tested over a range starting from a high concentration at or near the clinical Cmax and decreasing in half-log increments. If the clinical Cmax for an agent had not been determined, the highest concentration tested was 10 microM.
# Cell Culture. All cells were maintained in an incubator at 37 degrees C and 5% CO2 with 95% humidity. The PDC lines were cultured according to standard operating procedures established by the NCI PDMR. Briefly, all PDCs were thawed and cultured in Matrigel-coated flasks prepared with a working solution of 1X Ham's F-12 nutrient mix, without supplementation (Invitrogen, Waltham, MA, cat. 11765054), 100 U/mL penicillin-streptomycin (Invitrogen, cat. 15140122), and 2.5% Matrigel (Corning Inc., Corning, NY, cat. 354248) for the first three passages. The 947758-054-R-J2-PDC line was cultured in 6B/Colon 1A media, which includes advanced DMEM/F-12 (Thermo Fisher Scientific, cat. 12634028), 10 mM HEPES (Thermo Fisher Scientific, cat. 15630080), 1X GlutaMAX supplement (Thermo Fisher Scientific, cat. 35050061), 0.1 mg/mL primocin (InvivoGen, cat. ant-pm-2), 10% defined fetal bovine serum, heat inactivated (HyClone Laboratories Inc., cat. SH30070.03HI), 1.25 mM N-Acetyl-L-cysteine (Sigma-Aldrich, cat. A9165), 10 mM nicotinamide (Sigma-Aldrich, cat. N0636), 1X B-27 supplement (Thermo Fisher Scientific, cat. 17504044), 1X N-2 supplement (Thermo Fisher Scientific, cat. 17502048), and 10 microM Y-27632 dihydrochloride (Tocris Bioscience, cat. 1254). The 876862-298-R-J1-PDC was cultured in 6E media, which includes all 6B/Colon 1A media components plus 50% L-WRN conditioned media (ATCC, cat. CRL-3276), 50 ng/mL recombinant human EGF recombinant protein (hEGF; Thermo Fisher Scientific, cat. PHG0311), 10 ng/mL recombinant human fibroblast growth factor 10 (hGFG-10; PeproTech, cat. 100-26), 1 ng/mL recombinant human fibroblast growth factor 2 (hFGF-2; PeproTech, cat. 100-18B), and 1 µM prostaglandin E2 (PGE2; Tocris, cat. 2296). The 227483-062-R1-J1-PDC line was cultured in Panc media, containing all 6E components except hFGF-2, with the addition of 500 nM SB-431542 (Selleckchem, cat. S1067) and 10 nM gastrin (Tocris, cat. 3006). […]
# 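Wherever viability, T/C is given: drug exposure lasted seven days before viability readout; 100% = DMSO vehicle control wells.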
smiles,measurement,setting,value
O=c1[nH]cc(F)c(=O)[nH]1 + CNC(=O)c1ccc(Nc2nc(OC3CCCC3)c3c(-c4ccc5nc(C)oc5c4)c[nH]c3n2)c(OC)c1,IC50,second compound 0.0316 µM,0.881 µM
same,IC50,second compound 0.1 µM,0.535 µM
same,IC50,second compound 0.316 µM,< 0.0316 µM
same,IC50,second compound 1 µM,< 0.0316 µM
same,IC50,second compound 3.16 µM,< 0.0316 µM
same,IC50,second compound 10 µM,< 0.0316 µM
same,"viability, T/C","second compound 0.0316 µM, first compound 0.0316 µM",107%
same,"viability, T/C","second compound 0.0316 µM, first compound 0.1 µM",95.1%
same,"viability, T/C","second compound 0.0316 µM, first compound 0.316 µM",77.4%
same,"viability, T/C","second compound 0.0316 µM, first compound 1 µM",45.8%
same,"viability, T/C","second compound 0.0316 µM, first compound 3.16 µM",33.2%
same,"viability, T/C","second compound 0.0316 µM, first compound 10 µM",32.5%
same,"viability, T/C","second compound 0.1 µM, first compound 0.0316 µM",79.9%
same,"viability, T/C","second compound 0.1 µM, first compound 0.1 µM",86.9%
same,"viability, T/C","second compound 0.1 µM, first compound 0.316 µM",64.8%
same,"viability, T/C","second compound 0.1 µM, first compound 1 µM",32.2%
same,"viability, T/C","second compound 0.1 µM, first compound 3.16 µM",23.9%
same,"viability, T/C","second compound 0.1 µM, first compound 10 µM",22.9%
same,"viability, T/C","second compound 0.316 µM, first compound 0.0316 µM",21%
same,"viability, T/C","second compound 0.316 µM, first compound 0.1 µM",23.6%
same,"viability, T/C","second compound 0.316 µM, first compound 0.316 µM",22.2%
same,"viability, T/C","second compound 0.316 µM, first compound 1 µM",11.9%
same,"viability, T/C","second compound 0.316 µM, first compound 3.16 µM",12.8%
same,"viability, T/C","second compound 0.316 µM, first compound 10 µM",10.3%
same,"viability, T/C","second compound 1 µM, first compound 0.0316 µM",15.8%
same,"viability, T/C","second compound 1 µM, first compound 0.1 µM",18.7%
same,"viability, T/C","second compound 1 µM, first compound 0.316 µM",15.7%
same,"viability, T/C","second compound 1 µM, first compound 1 µM",11.2%
same,"viability, T/C","second compound 1 µM, first compound 3.16 µM",9.79%
same,"viability, T/C","second compound 1 µM, first compound 10 µM",9.97%
same,"viability, T/C","second compound 3.16 µM, first compound 0.0316 µM",21.1%
same,"viability, T/C","second compound 3.16 µM, first compound 0.1 µM",20.4%
same,"viability, T/C","second compound 3.16 µM, first compound 0.316 µM",18.6%
same,"viability, T/C","second compound 3.16 µM, first compound 1 µM",10.2%
same,"viability, T/C","second compound 3.16 µM, first compound 3.16 µM",10.9%
same,"viability, T/C","second compound 3.16 µM, first compound 10 µM",10.6%
same,"viability, T/C","second compound 10 µM, first compound 0.0316 µM",17.8%
same,"viability, T/C","second compound 10 µM, first compound 0.1 µM",14.8%
same,"viability, T/C","second compound 10 µM, first compound 0.316 µM",17.4%
same,"viability, T/C","second compound 10 µM, first compound 1 µM",11.4%
same,"viability, T/C","second compound 10 µM, first compound 3.16 µM",11.5%
same,"viability, T/C","second compound 10 µM, first compound 10 µM",9.63%
